Laboratory results as given in article PMC7479175, “Selection of Potent Inhibitors of Soluble Epoxide Hydrolase for Usage in Veterinary Medicine” (Frontiers in Veterinary Science, 2020).

Key:
[1] = Microsomal stability; assay type: in vitro ADME, dog; details: for Stability (% without microsomes) Dog liver microsomes NADPH + / Stability (% without microsomes) Dog liver microsomes NADPH –: 1 μM inhibitor, microsomes 1 mg/mL, 37°C, 30 min, compound remaining, average ± SD (n = 3); for Stability (% without microsomes) Dog liver microsomes NADPH +: with NADPH; for metabolism in dog liver microsomes (in words): in the presence of NADPH
Experimental: (§1) The stability of the sEH inhibitors was determined using liver microsomes as described ([24]). […] After 30 min at 37°C, the reaction was stopped by the addition of one volume of methanol containing CUDA (200 nM) as surrogate. The amount of remaining inhibitor was determined by LC/MS/MS. The stability is reported as a percentage of compound remaining after 30 min in these conditions.
(§2) Mass spectrometry analyses were performed using a Waters Quattro Premier triple quadrupole tandem mass spectrometer (Micromass, Manchester, UK) interfaced to an electrospray ionization (ESI) source. The MS was coupled with a Waters Acquity UPLC (Waters, Milford, MA, USA). A Varian Pursuit5 C18 RP HPLC column (150 mm × 2.1 mm, particle size 5 μm) was used to separate the analytes. […] The source and the desolvation temperatures were set at 120 and 300°C, respectively. […] Dwell time was set to 0.1 s.

[2] = Microsomal stability; assay type: in vitro ADME, horse; details: for Stability (% without microsomes) Horse liver microsomes NADPH + / Stability (% without microsomes) Horse liver microsomes NADPH –: 1 μM inhibitor, microsomes 1 mg/mL, 37°C, 30 min, compound remaining, average ± SD (n = 3); for Stability (% without microsomes) Horse liver microsomes NADPH +: with NADPH; for metabolism in horse liver microsomes (in words): in the presence of NADPH
Experimental: as §1, §2

[3] = molecular target: sEH activity from liver cytosol of Cow (Bos taurus, UniProt Q17QK4); experiment: sEH inhibition potency (IC50), radioactive assay with [3H]t-DPPO, liver cytosol; assay type: biochemical; details: [3H]t-DPPO ([S]final = 5 μM) as substrate
sEH activity from liver cytosol of Cow, sequence (Q17QK4 entry or part of it): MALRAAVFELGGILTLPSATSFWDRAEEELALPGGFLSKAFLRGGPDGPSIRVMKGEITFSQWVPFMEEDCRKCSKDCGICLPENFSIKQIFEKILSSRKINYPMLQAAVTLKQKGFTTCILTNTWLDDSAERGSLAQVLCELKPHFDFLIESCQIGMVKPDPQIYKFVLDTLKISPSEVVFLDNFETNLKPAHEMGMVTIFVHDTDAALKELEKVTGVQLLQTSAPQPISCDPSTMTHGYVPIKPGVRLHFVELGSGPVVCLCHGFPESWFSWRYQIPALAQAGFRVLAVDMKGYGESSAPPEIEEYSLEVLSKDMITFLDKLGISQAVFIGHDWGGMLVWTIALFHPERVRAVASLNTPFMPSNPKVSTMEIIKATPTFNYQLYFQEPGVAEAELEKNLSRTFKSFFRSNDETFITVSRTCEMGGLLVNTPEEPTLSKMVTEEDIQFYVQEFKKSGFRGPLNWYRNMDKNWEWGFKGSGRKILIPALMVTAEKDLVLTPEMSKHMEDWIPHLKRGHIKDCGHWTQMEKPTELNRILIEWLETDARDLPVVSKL
Excerpt: Fresh liver tissues samples (5–30 g) were collected promptly after death from healthy adult cat, dog and horse euthanized for reasons unrelated to this study, and whose bodies were given to science by the owners in line with federal regulations and protocol approved by the Institutional Animal Care and Use Committee at University of California Davis. Similarly, tissues from the other animals tested herein were collected from healthy animals immediately after being slaughter at the university abattoir. Because no animals were directly used or killed for this study, sample collections were exempted from approval by the Institutional Animal Care and Use Committee of the University of California Davis and Michigan State University. […] The tissues were flash-frozen in liquid nitrogen following removal, and then kept at −80°C until used. After thawing on ice, the samples were homogenized in chilled sodium phosphate buffer (20 mM pH 7.4) containing 5 mM EDTA, 1 mM DTT and 1 mM PMSF (tissue weight:buffer volume ratio 1:4). These homogenates were centrifuged at 100,000 g for 60 min at 4°C. The supernatant (the cytosolic fraction) was separated from the pellet, aliquoted and flash frozen in liquid nitrogen, then kept frozen at −80°C until usage.
The IC50 values reported herein were determined using either a fluorescent based assay (CMNPC as substrate) for purified enzyme preparations or a radioactive based assay ([^3H]t-DPPO as substrate) for crude enzyme preparations ([20]). The fluorescent assay was used with the purified proteins. […] The substrate (CMNPC) was then added ([S]final = 5 μM). […] The radioactive […] assay was used with the liver crude extracts. Extracts were incubated with inhibitors ([I]final = 1–1,000 nM) at 30° C for 5 min in sodium phosphate buffer (pH 7.4) containing 0.1 mg/mL of BSA and 1% of DMSO, prior to substrate introduction ([^3H]t-DPPO [S]final: 50 μM; ~12,000 dpm/assay). The enzymes were incubated at 30°C for 10 min, and the reaction was quenched by the addition of 60 μL methanol and 200 μL isooctane, which extracts the remaining epoxide from the aqueous phase. […] Assays were performed in triplicate.

[4] = Microsomal stability; assay type: in vitro ADME, cat; details: for Stability (% without microsomes) Cat liver microsomes NADPH + / Stability (% without microsomes) Cat liver microsomes NADPH –: 1 μM inhibitor, microsomes 1 mg/mL, 37°C, 30 min, compound remaining, average ± SD (n = 3); for Stability (% without microsomes) Cat liver microsomes NADPH +: with NADPH; for metabolism in cat liver microsomes (in words): in the presence of NADPH
Experimental: as §1, §2

[5] = molecular target: Cat sEH (Felis catus, UniProt A0ABI7ZL20); experiment: Secondary screen (kinetic mode), PHOME substrate; assay type: biochemical; details: read-out: Cat sEH Inhibition (%) S.
Cat sEH, sequence (A0ABI7ZL20 entry or part of it): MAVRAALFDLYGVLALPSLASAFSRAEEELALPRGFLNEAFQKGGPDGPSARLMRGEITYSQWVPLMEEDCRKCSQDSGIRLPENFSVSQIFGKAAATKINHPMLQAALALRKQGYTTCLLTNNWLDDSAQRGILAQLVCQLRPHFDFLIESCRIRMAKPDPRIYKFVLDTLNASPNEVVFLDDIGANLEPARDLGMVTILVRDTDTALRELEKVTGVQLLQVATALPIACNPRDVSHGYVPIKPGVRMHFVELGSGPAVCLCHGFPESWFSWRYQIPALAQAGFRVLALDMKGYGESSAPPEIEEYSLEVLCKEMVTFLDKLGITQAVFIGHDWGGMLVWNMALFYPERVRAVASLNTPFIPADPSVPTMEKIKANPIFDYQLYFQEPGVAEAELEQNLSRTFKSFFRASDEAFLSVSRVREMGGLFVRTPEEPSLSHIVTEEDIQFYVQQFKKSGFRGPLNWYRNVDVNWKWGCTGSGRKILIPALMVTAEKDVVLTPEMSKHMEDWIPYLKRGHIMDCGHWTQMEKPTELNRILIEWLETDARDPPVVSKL

[6] = molecular target: Horse sEH (Equus caballus, UniProt F7C407); assay type: biochemical; details: CMNPC ([S]final = 5 μM) as substrate; average ± standard deviation (n = 3)
Horse sEH, sequence (F7C407 entry or part of it): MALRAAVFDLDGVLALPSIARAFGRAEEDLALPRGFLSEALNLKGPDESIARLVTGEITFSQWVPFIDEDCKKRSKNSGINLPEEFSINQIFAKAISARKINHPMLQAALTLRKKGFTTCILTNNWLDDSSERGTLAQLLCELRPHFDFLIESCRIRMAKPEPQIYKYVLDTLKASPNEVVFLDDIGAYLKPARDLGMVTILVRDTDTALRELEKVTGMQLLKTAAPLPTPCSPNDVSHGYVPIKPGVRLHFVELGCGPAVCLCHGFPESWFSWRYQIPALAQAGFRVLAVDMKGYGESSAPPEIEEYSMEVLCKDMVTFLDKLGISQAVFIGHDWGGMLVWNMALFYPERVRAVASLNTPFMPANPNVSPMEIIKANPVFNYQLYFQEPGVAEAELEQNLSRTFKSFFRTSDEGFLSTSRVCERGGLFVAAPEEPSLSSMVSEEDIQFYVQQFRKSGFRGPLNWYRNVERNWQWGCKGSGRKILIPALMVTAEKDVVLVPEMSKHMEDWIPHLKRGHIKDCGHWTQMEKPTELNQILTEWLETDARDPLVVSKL
Experimental: (§3) The sEH activity from the cat, dog and horse liver was further purified to eliminate contaminating esterase activity that could interfere with the screening fluorescent assay ([16]). The cytosolic fraction was loaded on a Q-Sepharose column (100 mL) equilibrated with sodium phosphate buffer (20 mM pH 7.4). After washing of the bound proteins, the sEH activity was eluted with a step gradient of NaCl (0–1 M). The fractions containing the sEH activity were pooled and concentrated using a Centriprep-30. The concentrates were aliquoted and flash frozen, then kept frozen at −80°C until usage. […] Protein concentration was quantified using the Pierce BCA assay (Pierce, Rockford, IL), using Fraction V bovine serum albumin (BSA) as the calibrating standard.
(§4) The IC50 values reported herein were determined using either a fluorescent based assay (CMNPC as substrate) for purified enzyme preparations or a radioactive based assay ([^3H]t-DPPO as substrate) for crude enzyme preparations ([20]). The fluorescent assay was used with the purified proteins. […] The substrate (CMNPC) was then added ([S]final = 5 μM). […] The radioactive […] assay was used with the liver crude extracts. […]

[7] = molecular target: T1, Dog sEH (Canis lupus familiaris, UniProt A0A8I3NJL8); experiment: sEH inhibition potency (IC50), fluorescent assay with CMNPC, partially purified enzyme; assay type: biochemical; details: CMNPC ([S]final = 5 μM) as substrate; average ± standard deviation (n = 3)
T1 sequence (A0A8I3NJL8 1-556): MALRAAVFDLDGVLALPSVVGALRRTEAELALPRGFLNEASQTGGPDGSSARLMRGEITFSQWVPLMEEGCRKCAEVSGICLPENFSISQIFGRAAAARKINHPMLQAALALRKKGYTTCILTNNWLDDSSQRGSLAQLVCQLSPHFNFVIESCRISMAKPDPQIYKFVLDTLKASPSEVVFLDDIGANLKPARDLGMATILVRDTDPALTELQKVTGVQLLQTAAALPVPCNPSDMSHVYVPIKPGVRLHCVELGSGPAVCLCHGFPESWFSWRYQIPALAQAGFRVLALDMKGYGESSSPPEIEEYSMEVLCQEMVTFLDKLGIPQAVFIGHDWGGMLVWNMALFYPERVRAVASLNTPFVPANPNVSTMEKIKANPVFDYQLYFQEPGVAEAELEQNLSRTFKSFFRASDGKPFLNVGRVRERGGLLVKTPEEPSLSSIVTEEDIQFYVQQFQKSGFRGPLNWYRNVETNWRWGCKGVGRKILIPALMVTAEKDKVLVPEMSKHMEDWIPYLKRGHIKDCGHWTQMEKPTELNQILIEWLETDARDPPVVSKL
Experimental: as §3, §4

SMILES	Stability (% without microsomes) Dog liver microsomes NADPH + [1] [%]	Stability (% without microsomes) Dog liver microsomes NADPH – [1] [%]	metabolism in dog liver microsomes (in words) [1]	Stability (% without microsomes) Horse liver microsomes NADPH + [2] [%]	metabolism in horse liver microsomes (in words) [2]	IC50 [3] [nM]	Stability (% without microsomes) Cat liver microsomes NADPH + [4] [%]	Stability (% without microsomes) Cat liver microsomes NADPH – [4] [%]	metabolism in cat liver microsomes (in words) [4]	inhibition at 0.1 µM [5] [%]	IC50 [6] [nM]	IC50 [7] [nM]	Stability (% without microsomes) Horse liver microsomes NADPH – [2] [%]	stability in dog liver microsomes (in words) ([1]; in the absence of NADPH)	stability in horse liver microsomes (in words) ([2]; in the absence of NADPH)	stability in cat liver microsomes (in words) ([4]; in the absence of NADPH)
O=C(NCCCCOc1ccc(F)cc1)NC12CC3CC(CC(C3)C1)C2 [1,707]	8 ± 3	87 ± 17	metabolized rapidly	1.6 ± 0.2	metabolized rapidly	7	5 ± 1	101 ± 14	metabolized rapidly	99	0.5 ± 0.03	0.9 ± 0.1				
O=C(Nc1ccc(OC(F)(F)F)cc1)N[C@H]1CC[C@H](Oc2ccc(C(=O)O)cc2)CC1 [1,728, trans-4-{4-[3-(4-trifluoromethoxy-phenyl)-ureido]-cyclohexyloxy}-benzoic acid]	100 ± 3	104 ± 3	most stable	89 ± 3	most stable		101 ± 3	103 ± 8	most stable				108 ± 10			
N#CNC(=O)CCCCCCCCCCCNC(=O)NC12CC3CC(CC(C3)C1)C2 [1,845]	34 ± 11	84 ± 3	further metabolized	28 ± 9	further metabolized	11	9 ± 2	5 ± 1		104	0.4 ± 0.01	0.6 ± 0.04	67 ± 3	not stable	not stable	not stable
